Patent US20260306506A1, “PYRIDO[4,3-D]PYRIMIDINE COMPOUNDS” (Pfizer Inc., priority 2023, published 2026)

Assays:
[1] = test system: H358 (non-small cell lung cancer cell line); test: KRAS Cell Titer Glo (CTG) viability assay, H358; type: cell-based; details: Homo sapiens, NCI-H358, 168 h, H358, 7-day; geometric mean when n>1
From the text: (§1) The CellTiter-Glo® (CTG) Luminescent Cell Viability Assay is a homogeneous method of determining the number of viable cells in culture based on quantitation of the ATP present, an indicator of metabolically active cells. The CTG is designed for use with multi-well formats, making it ideal for automated high-throughput screening (HTS), cell proliferation and cytotoxicity assays. The homogeneous assay procedure involves adding the single reagent (CellTiter-Glo® Reagent) directly to cells cultured in serum-supplemented medium. Cell washing, removal of medium and multiple pipetting steps are not required. The system detects as few as 15 cells per well in a 384-well format in 10 minutes after adding reagent and mixing.
(§2) Cells are grown in humidified 5% CO2 incubator at 37° C. using the culture conditions outlined below. All cell culture media reagents were purchased from Gibco. Cell lines purchased from ATCC: H358 (non-small cell lung cancer cell line), SW620 (colorectal cancer cell line), PANC08.13 (RPM11640+10% FBS+10 units/ml Insulin, pancreatic cancer cell line). Test and control compounds are dispensed as nanoliter drops according to desired final concentrations in 0.1% DMSO using Echo Acoustic Dispenser onto 384 assay plates (Corning, Cat #3764) prior to cell seeding. Cells were seeded in 40 μL volume per well at the following cell densities (cells per well): H358 (300), SW620 (750), PANC 08.13 (600). Cells are incubated in the presence of compound for 7-days. Viability is determined on Day 7 using CellTiter-Glo® (CTG) Luminescent Cell Viability Assay (Promega). CTG is added to a final volume of 20 μl per well and incubated at room temperature for 15 minutes before luminescence is captured using an EnVision Reader with LUM384 US protocol. Data is analyzed using Activity Base to determine compound response and will be represented either as a percent effect (PCTEFF) or percent control (PCTOCTL) as described: Zero percent effect control (ZPE) (Negative control)—100% DMSO. Hundred percent effect (HPE) (Positive control)—1 μM Trametinib (GSK1120212, MEK inhibitor) (4 nl of 10 mM and 36 nl of DMSO per well). The following equations/nomenclature are used (% Effect; PCTEFF) and (% of Control; PCTOCTL): PCTEFF: 100*(Raw_Data_Value−HPE/ZPE−HPE), PCTOCTL: 100*Raw_Data_Value/User_Defined_Array), where the User_Defined_Array is either summarized HPE or ZPE.

[2] = molecular target: G12V GDP KRAS (aa2-184) (Homo sapiens, UniProt P01116, G12V); test: biochemical
Experimental: (§5) The binding affinity and kinetics were measured by Surface Plasmon Resonance (SPR) using Biacore 8K or 8K+ (Cytiva, Marlborough, MA) instruments. Recombinant, C-terminal site-specific biotinylated, wild-type (WT) KRASGDP (aa1-185), G12DGDP KRAS (aa1-185), G12CGDP KRAS (aa2-184), G12VGDP KRAS (aa2-184), WT HRASGDP (aa2-184) and WT NRASGDP (aa2-185) proteins were purified in presence of 1 μM GDP. The GDP-loaded KRAS proteins then went through nucleotide exchange with GTPγS (a non-hydrolysable analog of GTP) in the presence of alkaline phosphatase beads to obtain WTGTPγS KRAS (aa1-185), G12DGTPγS KRAS (aa1-185), G12CGTPγS KRAS (aa2-184), G12VGTPγS KRAS (aa2-184), WT HRASGTPγS (aa2-184) and WT NRASGTPγS (aa2-185). Binding measurements were performed parallelly in sets of either WT/G12D/G12C/G12V KRAS or WT K/H/N RAS proteins in GDP- and/or GTPγS-loaded forms, respectively.
(§6) Biacore instrument was desorbed and docked with a Series S Sensor Chip SA. […] Compound binding kinetics were measured in either multi-cycle or single-cycle kinetic format.
(§7) A 2-fold, 10-point serial dilution of test compounds was set-up in a 96-well microplate (Greiner; Cat #650101) with a top concentration of either 10 μM or 100 μM. Binding kinetics was measured at 10° C. by injecting serial dilution of compounds onto both reference and RAS immobilized channels at a flow rate of 100 μL/min and association time of 90 seconds. Compound dissociation was monitored for at least 400 seconds during each cycle. […]
(§8) A 3-fold, 6-point serial dilution of compounds was set-up in a deep 96-well microplate (Greiner Bio; Cat #780201) with the highest concentration of 1 μM (concentration range: 0.004-1 μM). Binding kinetics was measured at 10° C. by injecting serial dilutions of compounds in increasing order onto reference as well as RAS immobilized channels at a flow rate of 100 μL/min and association time of 120 seconds. Compound dissociation was monitored for at least 3600 seconds. […]
(§9) Both MCK and SCK data were processed and analyzed using Biacore Insight evaluation software (Cytiva, Marlborough, MA)). […]

[3] = molecular target: T1, wild-type (WT) KRAS GDP (aa1-185) (Homo sapiens, UniProt P01116); test: SPR binding (Biacore), GDP-loaded WT KRAS; details: 10° C., geometric mean when n>1
T1 construct: wild-type (WT) KRASGDP (aa1-185); made in house
From the text: (§3) No additional regeneration was used.
(§4) Compound dissociation was monitored for at least 3600 seconds. […] No additional regeneration was used.

[4] = molecular target: T2, WT GTPγS KRAS (aa1-185) (Homo sapiens, UniProt P01116); test: SPR binding (Biacore), GTPγS-loaded WT KRAS; details: for Kd: 10° C., geometric mean when n>1, read-out: KRasGTPgS SPR KD; for KRasGTPgS SPR t1/2: dissociative half-life, t1/2=0.693/koff
T2 construct: wild-type (WT) KRASGDP (aa1-185); made in house
From the text: as §3, §4

[5] = molecular target: G12D GDP KRAS (aa1-185) (Homo sapiens, UniProt P01116, G12D); test: biochemical
Experimental: as §5, §6, §7, §8, §9

[6] = test system: SW620 (colorectal cancer cell line); test: KRAS Cell Titer Glo (CTG) viability assay, SW620; type: cell-based; details: Homo sapiens, SW-620, 168 h, SW620, 7-day; geometric mean when n>1
From the text: as §1, §2

[7] = molecular target: G12C GDP KRAS (aa2-184) (Homo sapiens, UniProt P01116, G12C); test: biochemical
Experimental: as §5, §6, §7, §8, §9

[8] = molecular target: T3, G12D GTPγS KRAS (aa1-185) (Homo sapiens, UniProt P01116, G12D); test: SPR binding (Biacore), GTPγS-loaded KRAS G12D; details: for Kd: 10° C., geometric mean when n>1, read-out: KRasGTPgS G12D SPR KD; for KRasGTPgS G12D SPR t1/2: dissociative half-life, t1/2=0.693/koff
T3 construct: G12DGDP KRAS (aa1-185); made in house
From the text: as §3, §4

[9] = test system: PANC08.13 (pancreatic cancer cell line); test: KRAS Cell Titer Glo (CTG) viability assay, Panc08.13; type: cell-based; details: Homo sapiens, PANC-08-13, 168 h, Panc08.13, 7-day; geometric mean when n>1
From the text: as §1, §2

[10] = molecular target: T4, G12V GTPγS KRAS (aa2-184) (Homo sapiens, UniProt P01116, G12V); test: SPR binding (Biacore), GTPγS-loaded KRAS G12V; details: for Kd: 10° C., geometric mean when n>1, read-out: KRasGTPgS G12V SPR KD; for KRasGTPgS G12V SPR t1/2: dissociative half-life, t1/2=0.693/koff
T4 construct: G12VGDP KRAS (aa2-184); made in house
From the text: as §3, §4

[11] = molecular target: T5, G12C GTPγS KRAS (aa2-184) (Homo sapiens, UniProt P01116, G12C); test: SPR binding (Biacore), GTPγS-loaded KRAS G12C; details: for Kd: 10° C., geometric mean when n>1, read-out: KRasGTPgS G12C SPR KD; for KRasGTPgS G12C SPR t1/2: dissociative half-life, t1/2=0.693/koff
T5 construct: G12CGDP KRAS (aa2-184); made in house
From the text: as §3, §4

[12] = test system: pancreatic cancer, non-small cell lung cancer, and colorectal cancer; test: CTG assay, summary statement for cancer cell lines; type: cell-based; details: alkylidenyl and/or haloalkylidenyl on R^1; statement in words
From the text: as §1
Cells are grown in humidified 5% CO2 incubator at 37° C. using the culture conditions outlined below. All cell culture media reagents were purchased from Gibco. […] Viability is determined on Day 7 using CellTiter-Glo® (CTG) Luminescent Cell Viability Assay (Promega). CTG is added to a final volume of 20 μl per well and incubated at room temperature for 15 minutes before luminescence is captured using an EnVision Reader with LUM384 US protocol. Data is analyzed using Activity Base to determine compound response and will be represented either as a percent effect (PCTEFF) or percent control (PCTOCTL) as described: Zero percent effect control (ZPE) (Negative control)—100% DMSO. […]

[13] = test system: KRAS G12C, KRAS G12D, and KRAS G12V receptors; test: SPR binding, summary statement for KRAS mutants; details: alkylidenyl and/or haloalkylidenyl on R^1; statement in words
From the text: as §3, §4

Row | SMILES | IC50 [1] [nM] | Kd [2] [nM] | Kd [3] [nM] | Kd [4] [nM] | KRasGTPgS SPR t1/2 [4] [h] | Kd [5] [nM] | IC50 [6] [nM] | Kd [7] [nM] | Kd [8] [nM] | KRasGTPgS G12D SPR t1/2 [8] [h] | IC50 [9] [nM] | Kd [10] [nM] | KRasGTPgS G12V SPR t1/2 [10] [h] | Kd [11] [nM] | KRasGTPgS G12C SPR t1/2 [11] [h] | cellular activities against certain tumors [12] | binding affinities [13]
1 | C#Cc1c(F)ccc2cc(O)cc(-c3nc4c5c(nc(OC[C@@]67CCCN6CC(=C)C7)nc5c3F)N3CCCC[C@H]3CO4)c12 [Example 36, 5-ethynyl-6-fluoro-4-[(8aS)-4-fluoro-2-{[(7aS)-2-methylidenetetrahydro-1H-pyrrolizin-7a(5H)-yl]methoxy}-8,8a,9,10,11,12-hexahydro-7-oxa-1,3,6,12a-tetraazabenzo[4,5]cyclohepta[1,2,3-de]naphthalen-5-yl]naphthalen-2-ol] | 13.1 | 0.286 | 0.04 | 0.475 | 6.0 | 0.289 | 18.7 | 0.067 | 0.404 | 3.6 | 2.7 | 0.316 | 8.9 | 0.372 | 11.0 |  | 
2 | C#Cc1c(F)ccc2cc(O)cc(-c3nc4c5c(nc(OC[C@@]67CCCN6C/C(=C/F)C7)nc5c3F)N3CCCOC[C@H]3CO4)c12 [Example 34, 5-ethynyl-6-fluoro-4-[(8aS)-4-fluoro-2-{[(2E,7aS)-2-(fluoromethylidene)tetrahydro-1H-pyrrolizin-7a(5H)-yl]methoxy}-8a,9,12,13-tetrahydro-8H,11H-7,10-dioxa-1,3,6,13a-tetraazanaphtho[1,8-ab]heptalen-5-yl]naphthalen-2-ol] | 1.2 |  |  | < 0.0106 | >192.7 |  | 2.3 |  | < 0.0061 | >192.7 | < 0.5 | < 0.0097 | >192.7 | < 0.0145 | >192.7 | may enhance | may enhance
3 | C=C1CN2CCC[C@@]2(COc2nc3c4c(nc(-c5cc(O)cc6ccc(F)c(CC)c56)c(F)c4n2)OC[C@@H]2COCCCN32)C1 [Example 35, 5-ethyl-6-fluoro-4-[(8aS)-4-fluoro-2-{[(7aS)-2-methylidenetetrahydro-1H-pyrrolizin-7a(5H)-yl]methoxy}-8a, 9,12,13-tetrahydro-8H,11H-7,10-dioxa-1,3,6,13a-tetraazanaphtho[1,8-ab]heptalen-5-yl]naphthalen-2-ol] | 2.3 | 0.048 | 0.007 | 0.184 | 12.4 | 0.011 | 3.8 | 0.009 | 0.092 | 11.3 | < 0.7 | 0.209 | 10.3 | 0.181 | 17.8 |  | 
